# Results reported in US6951950B2, “Quaternary ammonium compounds” (Pharmacia & Upjohn Co, priority 2002, dated 2005).
# Tested on: Balb/c mice
# Test: Bronchodilatory effect of inhaled quaternary ammonium salts; methacholine-induced bronchoconstriction (Penh, whole body plethysmography)
# Assay type: in vivo
# Conditions: for inhibition of the bronchoconstriction to methacholine: female BALB/c mice, 5 min inhalation of 1.29 mg/ml aerosol, 80 mg/ml methacholine
# Experimental: Female BALB/c mice, weight range 19-22 g, were obtained from Charles River Laboratories (Kingston, N.C.). They received food and water ad libitum. All procedures in these studies were in compliance with the Animal Welfare Act Regulation, 9CFP. Parts 1 and 2, Publication (NIH) 85-23, 1985.
# Compounds for aerosol administration were prepared in sterile Dulbecco's Phosphate Buffered Saline. Mice were placed in a carousel-style, nose only, exposure chamber and allowed to inhale aerosols for five minutes, using an ICN SPAG-2 nebulizer. This nebulizer generates a mean aerosol particle size of 1.3 microns at a rate of approximately 0.25 ml/minute.
# Ten minutes and 36 hours later, the mice were moved to whole body plethysmograph chambers. Bronchoconstriction was induced in mice by administration of an 80 mg/ml methacholine (MC) aerosol into the plethysmograph chambers for 5 minutes. The mice were allowed to inhale an aerosol containing 80 mg/ml methacholine following inhalation treatment with DPBS vehicle (Dulbecco's Phosphate Buffered Saline), or 80 mg/ml methacholine following inhalation treatment with 1.29 mg/ml of (3S)-3-(2-amino-2-oxo-1,1-diphenylethyl)-1-[2-(2,3-dihydro-1-benzofuran-5-yl)ethyl]-1-methylpyrrolidinium iodide. The average enhanced pause (Penh, lung resistance), corresponding to airflow resistance, was determined and statistically analyzed using Kruskal-Wallis one way ANOVA. In order to determine the baseline, saline aerosol (without methacholine) was also separately administered to the mice.
structure (smiles),measurement,setting,value
"C[N+]1(CCc2ccc3c(c2)CCO3)CC[C@@H](C(C(N)=O)(c2ccccc2)c2ccccc2)C1.[I-] (stereo partly drawn) [Example I, (3S)-3-(2-amino-2-oxo-1,1-diphenylethyl)-1-[2-(2,3-dihydro-1-benzofuran-5-yl)ethyl]-1-methylpyrrolidinium iodide]",inhibition of the bronchoconstriction to methacholine,measured 10 minutes after dosing (FIG. 1),100%
same,inhibition of the bronchoconstriction to methacholine,measured 36 hours after dosing (FIG. 2),61%
same,efficacy (lung resistance) compared to tertiary amine form,"varying concentrations, quaternary compound vs its tertiary amine form (FIGS. 3A-3C)",extended activity
